According to US20060286547A1, “Time-of-addition assay for identifying anti-viral compounds” (priority 2003, published 2006):

System: HIV-1 (strain 111B)
Test: Time-of-addition assay with luminescent cells in 96- and 384-well plates
Format: cell-based
Conditions: early stages of addition; ATA 5 μM, AMD3100 and T20 1 μM; 96-well and 384-well plates; FIG. 6 and FIG. 7
Description: A MT4 cell line was used In the present example expressing a luciferase reporter gene under the control of a HIV-1-LTR promoter element. Cells were counted and a cell suspension of 500.000 ml or 350.000 ml was made for use in 96-well or 384 wells, respectively. The cells were centrifuged for 10 minutes at 400 g. Subsequently, cells were infected with at high multiplicity of infection with HIV-1 (strain 111B) at a host cell/virus titer of 1/1. Unabsorbed virus was removed by two washing steps in order to synchronize the infection. After the second washing step, cells were resuspended and the suspensions were distributed in the wells of a micro-titer plate in an amount of 95 μl or 36 μl in a 96-well or a 384 well format, respectively. At predefined time points 5 μl (96 well) and 4 μl (384 well) of compound was added. As compounds to be tested, reference compounds having well known mechanisms of action were included in the plates. […]
ATA was used in a concentration of 5 μM; AMD3100, T20 EFV ad SQV were used in a concentration of 1 μM and TMC143205 was used in a concentration of 1 μM. […] 100 μl Luc-lit™ substrate was added to each well and luminescence was monitored by processing the 96- and 384-well plates in a PerkinElmer-Viewlux™ within 30 minutes. HIV replication was quantified by measuring the luciferase signal.

## c1cc(CN2CCCNCCNCCCNCC2)ccc1CN1CCCNCCNCCCNCC1 [AMD3100]
  inhibitory activity as a function of time of addition: strong inhibitory activity

## O=C(O)C1=CC(=C(c2ccc(O)c(C(=O)O)c2)c2ccc(O)c(C(=O)O)c2)C=CC1=O [ATA]
  inhibitory activity as a function of time of addition: strong inhibitory activity
